Test results reported in EP1891940B1, “Intrasynovial formulations of stanozolol” (Acme Drugs S.r.l., priority 2006, dated 2008).

How the values were obtained:
Solubility in water = format: physicochemical; conditions: crystalline substance
Description: The formulations according to the invention of stanozolol in an aqueous carrier are therefore aqueous suspensions, and it is necessary to prevent the suspended crystals of the drug from causing mechanical lesions such as abrasions and erosions despite the pressures and friction generated by the movement of the joint on the surfaces of the cartilage and synovial membrane.

[1] = Persistence of stanozolol in the joint / synovial fluid after intrasynovial injection; format: in vivo, horses and humans
Description: A single intrasynovial injection of said formulations allows the stanozolol to be brought up to and maintained at pharmacologically active concentrations in the joint for 6-7 days, a period which is long enough to produce evident clinical benefits and fully compatible with long-term treatments.
Two examples of formulation of a typical preparation containing stanozolol administrable by the intrasynovial route to horses and humans, which remains in the synovial fluid for 5-7 days, one set out below: • a) Active ingredient: micronised stanozolol (having a prevalent population of particles with a diameter of less than 20 µm) 5 mg; Water for injectables q.s. to 1 ml. • b) Active ingredient: Micronised Stanozolol: (having a prevalent population of particles with diameter of less than 20 µm) 5 mg/ml

In the case of `C[C@]12Cc3c[nH]nc3C[C@@H]1CC[C@@H]1[C@@H]2CC[C@@]2(C)[C@H]1CC[C@]2(C)O` [stanozolol], the solubility in water (Solubility in water) is reported as “insoluble in water”, the “maintained at pharmacologically active concentrations in the joint” value ([1]; single intrasynovial injection of the micronised aqueous suspension formulations) is reported as 6-7 days and the “remains in the synovial fluid” value ([1]; typical preparation with micronised stanozolol 5 mg/ml, intrasynovial route, horses and humans) is reported as 5 to 7 days.
